Results: patent US12077503B2, “Substituted cyclic amides and their use as herbicides” (FMC CORPORATION, priority 2015, dated 2024)

Columns and labels:
Assay type in all cases: in vivo
[1] = test system: redroot pigweed (Amaranthus retroflexus); experiment: Test G Post-Emergence Protocol; details: Amaranthus retroflexus, post-emergence, 312 h; for pest or weed control at 15.625 g/ha: 15.625 g ai/ha, evaluated after 13 days (100=total damage to plant; 0=no damage to plant), read-out: Pigweed, Redroot damage rating; for pest or weed control at 62.5 g/ha: 62.5 g ai/ha, read-out: Pigweed, Redroot damage rating (100=total damage to plant; 0=no damage to plant); for pest or weed control at 62.5 g/ha / pest or weed control at 250 g/ha: evaluated after 13 days; for pest or weed control at 250 g/ha: 250 g ai/ha, read-out: damage to plant, Pigweed, Redroot (100=total damage to plant; 0=no damage to plant)
In short: (§1)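 Post-emergence herbicidal damage, scored visually 0–100 at 13 days. Application at 15.625, 62.5 or 250 g/ha onto 8-day-old plants grown under glasshouse control.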

corn (Zea mays) [2] = experiment: Test G Post-Emergence Protocol; details: Zea mays, post-emergence, 312 h; for plant injury at 15.625 g/ha: 15.625 g ai/ha, evaluated after 13 days (100=total damage to plant; 0=no damage to plant), read-out: Corn damage rating; for plant injury at 62.5 g/ha: 62.5 g ai/ha, read-out: Corn damage rating (100=total damage to plant; 0=no damage to plant); for plant injury at 62.5 g/ha / plant injury at 250 g/ha: evaluated after 13 days; for plant injury at 250 g/ha: 250 g ai/ha, read-out: damage to plant, Corn (100=total damage to plant; 0=no damage to plant)
In short: as §1

[3] = test system: velvetleaf (Abutilon theophrasti); experiment: Test G Post-Emergence Protocol; details: Abutilon theophrasti, post-emergence, 312 h; for pest or weed control at 15.625 g/ha: 15.625 g ai/ha, evaluated after 13 days (100=total damage to plant; 0=no damage to plant), read-out: Velvetleaf damage rating; for pest or weed control at 62.5 g/ha: 62.5 g ai/ha, read-out: Velvetleaf damage rating (100=total damage to plant; 0=no damage to plant); for pest or weed control at 62.5 g/ha / pest or weed control at 250 g/ha: evaluated after 13 days; for pest or weed control at 250 g/ha: 250 g ai/ha, read-out: damage to plant, Velvetleaf (100=total damage to plant; 0=no damage to plant)
In short: as §1

[4] = test system: giant foxtail (Setaria faberi); experiment: Test G Post-Emergence Protocol; details: Setaria faberi, post-emergence, 312 h; for pest or weed control at 15.625 g/ha: 15.625 g ai/ha, evaluated after 13 days (100=total damage to plant; 0=no damage to plant), read-out: Foxtail, Giant damage rating; for pest or weed control at 62.5 g/ha: 62.5 g ai/ha, read-out: Foxtail, Giant damage rating (100=total damage to plant; 0=no damage to plant); for pest or weed control at 62.5 g/ha / pest or weed control at 250 g/ha: evaluated after 13 days; for pest or weed control at 250 g/ha: 250 g ai/ha, read-out: damage to plant, Foxtail, Giant (100=total damage to plant; 0=no damage to plant)
In short: as §1

[5] = test system: ivy-leaved morning glory (Ipomoea hederacea); experiment: Test G Post-Emergence Protocol; details: Ipomoea, post-emergence, 312 h; for pest or weed control at 15.625 g/ha: 15.625 g ai/ha, evaluated after 13 days (100=total damage to plant; 0=no damage to plant), read-out: Morningglory, Ivy-leaved damage rating; for pest or weed control at 62.5 g/ha: 62.5 g ai/ha, read-out: Morningglory, Ivy-leaved damage rating (100=total damage to plant; 0=no damage to plant); for pest or weed control at 62.5 g/ha / pest or weed control at 250 g/ha: evaluated after 13 days; for pest or weed control at 250 g/ha: 250 g ai/ha, read-out: damage to plant, Morningglory, Ivy-leaved (100=total damage to plant; 0=no damage to plant)
In short: as §1

[6] = test system: barnyardgrass (Echinochloa crus-galli); experiment: Test G Post-Emergence Protocol; details: Echinochloa crus-galli, post-emergence, 312 h; for pest or weed control at 15.625 g/ha: 15.625 g ai/ha, evaluated after 13 days (100=total damage to plant; 0=no damage to plant), read-out: Barnyardgrass damage rating; for pest or weed control at 62.5 g/ha: 62.5 g ai/ha, read-out: Barnyardgrass damage rating (100=total damage to plant; 0=no damage to plant); for pest or weed control at 62.5 g/ha / pest or weed control at 250 g/ha: evaluated after 13 days; for pest or weed control at 250 g/ha: 250 g ai/ha, read-out: damage to plant, Barnyardgrass (100=total damage to plant; 0=no damage to plant)
In short: as §1

[7] = test system: redroot pigweed (Amaranthus retroflexus); experiment: Test G Pre-Emergence Protocol; details: Amaranthus retroflexus, pre-emergence, 312 h, evaluated after 13 days; for pest or weed control at 15.625 g/ha: 15.625 g ai/ha; for pest or weed control at 15.625 g/ha / pest or weed control at 250 g/ha: read-out: Pigweed, Redroot damage rating (100=total damage to plant; 0=no damage to plant); for pest or weed control at 62.5 g/ha: 62.5 g ai/ha, 100=total damage to plant, 0=no damage to plant, read-out: plant damage rating, Pigweed, Redroot; for pest or weed control at 250 g/ha: 250 g ai/ha
In short: (§2)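 Pots of seeds in standard soil were grown for one day in a glasshouse (24/16 °C day/night, 14 h light, 65% humidity), then sprayed with compound in acetone/water 50:50 with 0.5% Tween 20 at 15.625, 62.5 or 250 g/ha. Damage was scored after 13 days on a 0 (none) to 100 (total) scale.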

corn (Zea mays) [8] = experiment: Test G Pre-Emergence Protocol; details: Zea mays, pre-emergence, 312 h, evaluated after 13 days; for plant injury at 15.625 g/ha: 15.625 g ai/ha; for plant injury at 15.625 g/ha / plant injury at 250 g/ha: read-out: Corn damage rating (100=total damage to plant; 0=no damage to plant); for plant injury at 62.5 g/ha: 62.5 g ai/ha, 100=total damage to plant, 0=no damage to plant, read-out: plant damage rating, Corn; for plant injury at 250 g/ha: 250 g ai/ha
In short: as §2

[9] = test system: velvetleaf (Abutilon theophrasti); experiment: Test G Pre-Emergence Protocol; details: Abutilon theophrasti, pre-emergence, 312 h, evaluated after 13 days; for pest or weed control at 15.625 g/ha: 15.625 g ai/ha; for pest or weed control at 15.625 g/ha / pest or weed control at 250 g/ha: read-out: Velvetleaf damage rating (100=total damage to plant; 0=no damage to plant); for pest or weed control at 62.5 g/ha: 62.5 g ai/ha, 100=total damage to plant, 0=no damage to plant, read-out: plant damage rating, Velvetleaf; for pest or weed control at 250 g/ha: 250 g ai/ha
In short: as §2

[10] = test system: giant foxtail (Setaria faberi); experiment: Test G Pre-Emergence Protocol; details: Setaria faberi, pre-emergence, 312 h, evaluated after 13 days; for pest or weed control at 15.625 g/ha: 15.625 g ai/ha; for pest or weed control at 15.625 g/ha / pest or weed control at 250 g/ha: read-out: Foxtail, Giant damage rating (100=total damage to plant; 0=no damage to plant); for pest or weed control at 62.5 g/ha: 62.5 g ai/ha, 100=total damage to plant, 0=no damage to plant, read-out: plant damage rating, Foxtail, Giant; for pest or weed control at 250 g/ha: 250 g ai/ha
In short: as §2

[11] = test system: ivy-leaved morning glory (Ipomoea hederacea); experiment: Test G Pre-Emergence Protocol; details: Ipomoea, pre-emergence, 312 h, evaluated after 13 days; for pest or weed control at 15.625 g/ha: 15.625 g ai/ha, read-out: Morning-glory, Ivy-leaved damage rating (100=total damage to plant; 0=no damage to plant); for pest or weed control at 62.5 g/ha: 62.5 g ai/ha, 100=total damage to plant, 0=no damage to plant, read-out: plant damage rating, Morningglory, Ivy-leaved; for pest or weed control at 250 g/ha: 250 g ai/ha, read-out: Morningglory, Ivy-leaved damage rating (100=total damage to plant; 0=no damage to plant)
In short: as §2

[12] = test system: barnyardgrass (Echinochloa crus-galli); experiment: Test G Pre-Emergence Protocol; details: Echinochloa crus-galli, pre-emergence, 312 h, evaluated after 13 days; for pest or weed control at 15.625 g/ha: 15.625 g ai/ha, read-out: Barnyard grass damage rating (100=total damage to plant; 0=no damage to plant); for pest or weed control at 62.5 g/ha: 62.5 g ai/ha, 100=total damage to plant, 0=no damage to plant, read-out: plant damage rating, Barnyardgrass; for pest or weed control at 250 g/ha: 250 g ai/ha, read-out: Barnyardgrass damage rating (100=total damage to plant; 0=no damage to plant)
In short: as §2

CN1C[C@@H](c2ccc(C(F)(F)F)cc2)[C@H](C(=O)Nc2cc(Cl)nc(Cl)c2)C1=O (racemic) [Compound 1519]
pest or weed control at 15.625 g/ha [1]: 0%
pest or weed control at 62.5 g/ha [1]: 0%
pest or weed control at 250 g/ha [1]: 0%
plant injury at 15.625 g/ha (corn (Zea mays) [2]): 10%
plant injury at 62.5 g/ha (corn (Zea mays) [2]): 10%
plant injury at 250 g/ha (corn (Zea mays) [2]): 0%
pest or weed control at 15.625 g/ha [3]: 0%
pest or weed control at 62.5 g/ha [3]: 0%
pest or weed control at 250 g/ha [3]: 0%
pest or weed control at 15.625 g/ha [4]: 0%
pest or weed control at 62.5 g/ha [4]: 0%
pest or weed control at 250 g/ha [4]: 0%
pest or weed control at 15.625 g/ha [5]: 0%
pest or weed control at 62.5 g/ha [5]: 0%
pest or weed control at 250 g/ha [5]: 0%
pest or weed control at 15.625 g/ha [6]: 0%
pest or weed control at 62.5 g/ha [6]: 0%
pest or weed control at 250 g/ha [6]: 0%
pest or weed control at 15.625 g/ha [7]: 0%
pest or weed control at 62.5 g/ha [7]: 0%
pest or weed control at 250 g/ha [7]: 0%
plant injury at 15.625 g/ha (corn (Zea mays) [8]): 0%
plant injury at 62.5 g/ha (corn (Zea mays) [8]): 0%
plant injury at 250 g/ha (corn (Zea mays) [8]): 0%
pest or weed control at 15.625 g/ha [9]: 0%
pest or weed control at 62.5 g/ha [9]: 0%
pest or weed control at 250 g/ha [9]: 0%
pest or weed control at 15.625 g/ha [10]: 0%
pest or weed control at 62.5 g/ha [10]: 0%
pest or weed control at 250 g/ha [10]: 0%
pest or weed control at 15.625 g/ha [11]: 0%
pest or weed control at 62.5 g/ha [11]: 0%
pest or weed control at 250 g/ha [11]: 0%
pest or weed control at 15.625 g/ha [12]: 0%
pest or weed control at 62.5 g/ha [12]: 0%
pest or weed control at 250 g/ha [12]: 0%

Cc1cnc(NC(=O)[C@@H]2C(=O)N(C)C[C@H]2c2ccc(C(F)(F)F)cc2)cn1 (racemic) [Compound 1648]
pest or weed control at 15.625 g/ha [1]: 0%
pest or weed control at 62.5 g/ha [1]: 0%
pest or weed control at 250 g/ha [1]: 0%
plant injury at 15.625 g/ha (corn (Zea mays) [2]): 0%
plant injury at 62.5 g/ha (corn (Zea mays) [2]): 0%
plant injury at 250 g/ha (corn (Zea mays) [2]): 0%
pest or weed control at 15.625 g/ha [3]: 0%
pest or weed control at 62.5 g/ha [3]: 0%
pest or weed control at 250 g/ha [3]: 0%
pest or weed control at 15.625 g/ha [4]: 0%
pest or weed control at 62.5 g/ha [4]: 0%
pest or weed control at 250 g/ha [4]: 0%
pest or weed control at 15.625 g/ha [5]: 0%
pest or weed control at 62.5 g/ha [5]: 0%
pest or weed control at 250 g/ha [5]: 0%
pest or weed control at 15.625 g/ha [6]: 0%
pest or weed control at 62.5 g/ha [6]: 0%
pest or weed control at 250 g/ha [6]: 0%
pest or weed control at 15.625 g/ha [7]: 0%
pest or weed control at 62.5 g/ha [7]: 0%
pest or weed control at 250 g/ha [7]: 0%
plant injury at 15.625 g/ha (corn (Zea mays) [8]): 0%
plant injury at 62.5 g/ha (corn (Zea mays) [8]): 0%
plant injury at 250 g/ha (corn (Zea mays) [8]): 0%
pest or weed control at 15.625 g/ha [9]: 0%
pest or weed control at 62.5 g/ha [9]: 0%
pest or weed control at 250 g/ha [9]: 0%
pest or weed control at 15.625 g/ha [10]: 0%
pest or weed control at 62.5 g/ha [10]: 0%
pest or weed control at 250 g/ha [10]: 0%
pest or weed control at 15.625 g/ha [11]: 0%
pest or weed control at 62.5 g/ha [11]: 0%
pest or weed control at 250 g/ha [11]: 0%
pest or weed control at 15.625 g/ha [12]: 0%
pest or weed control at 62.5 g/ha [12]: 0%
pest or weed control at 250 g/ha [12]: 0%
